Results as given in ChEMBL document CHEMBL3826966, “A chromatography-free isolation of rohitukine from leaves of Dysoxylum binectariferum: Evaluation for in vitro cytotoxicity, Cdk inhibition and physicochemical properties” (Bioorg Med Chem Lett, 2016).

Experiments:
[1] = Cytotoxicity against human DU145 cells assessed as cell growth inhibition after 48 hrs by MTT assay; assay type: functional; conditions: DU-145, 48 h
HL-60 = test: Induction of apoptosis in human HL60 cells assessed as apoptotic cells at 1 uM (reference value: 1 %); assay type: functional
[2] = biological target: Dual specificity mitogen-activated protein kinase kinase 1 (Homo sapiens) (UniProt Q02750); test: Inhibition of human MKK1 (2 to 393 residues) assessed as remaining enzyme activity at 50 uM after 30 mins by 33P-ATP filter-binding assay
[3] = biological target: Serine/threonine-protein kinase STK11 (Homo sapiens) (UniProt Q15831); test: Inhibition of human LKB1 (1 to 433 residues) assessed as remaining enzyme activity at 50 uM after 30 mins by 33P-ATP filter-binding assay
[4] = Cytotoxicity against human Hs578T cells assessed as cell growth inhibition after 48 hrs by MTT assay; assay type: functional; conditions: Hs-578T
[5] = Cytotoxicity against human SF539 cells assessed as cell growth inhibition after 48 hrs by MTT assay; assay type: functional; conditions: SF-539, 48 h
[6] = biological target: Tyrosine-protein kinase Lck (Homo sapiens) (UniProt P06239); test: Inhibition of human LCK (2 to 509 residues) assessed as remaining enzyme activity at 50 uM after 30 mins by 33P-ATP filter-binding assay
[7] = biological target: Serine/threonine-protein kinase PLK1 (Homo sapiens) (UniProt P53350); test: Inhibition of human PLK1 (1 to 603 residues) assessed as remaining enzyme activity at 50 uM after 30 mins by 33P-ATP filter-binding assay
[8] = Partition coefficient, logP of the compound in water/PBS buffer at 25 degC by retention time method; assay type: physicochemical
[9] = biological target: MAP kinase-activated protein kinase 2 (Homo sapiens) (UniProt P49137); test: Inhibition of human MAPKAPK2 assessed as remaining enzyme activity at 50 uM after 30 mins by 33P-ATP filter-binding assay
[10] = biological target: Mitogen-activated protein kinase 8 (Homo sapiens) (UniProt P45983); test: Inhibition of human JNK1 (1 to 384 residues) assessed as remaining enzyme activity at 50 uM after 30 mins by 33P-ATP filter-binding assay
[11] = biological target: CDK9/cyclin T1 (Homo sapiens) (UniProt O60563+P50750); test: Inhibition of human Cdk9/T1 using YSPTSPSYSPTSPSYSPTSPKKK peptide as substrate at 0.5 uM after 30 mins by 33P-ATP filter-binding assay; assay type: protein-complex assay
[12] = biological target: Mitogen-activated protein kinase kinase kinase 7 (Homo sapiens) (UniProt O43318); test: Inhibition of human TAK1 (1 to 303 residues) assessed as remaining enzyme activity at 50 uM after 30 mins by 33P-ATP filter-binding assay
[13] = Cytotoxicity against human PANC1 cells assessed as cell growth inhibition after 48 hrs by MTT assay; assay type: functional; conditions: PANC-1, 48 h
[14] = Stability in SGF solution at 120 ug/ml after 8 hrs by RP-HPLC analysis; assay type: physicochemical; conditions: simulated gi fluid
MAP4K2 = test: Inhibition of human GCK (2 to 812 residues) assessed as remaining enzyme activity at 50 uM after 30 mins by 33P-ATP filter-binding assay
[15] = biological target: Insulin receptor-related protein (Homo sapiens) (UniProt P14616); test: Inhibition of human IRR (944 to 1236 residues) assessed as remaining enzyme activity at 50 uM after 30 mins by 33P-ATP filter-binding assay
[16] = biological target: Serine/threonine-protein kinase TAO1 (Homo sapiens) (UniProt Q7L7X3); test: Inhibition of human TAO1 (1 to 356 residues) assessed as remaining enzyme activity at 50 uM after 30 mins by 33P-ATP filter-binding assay
[17] = biological target: Dual specificity tyrosine-phosphorylation-regulated kinase 1A (Homo sapiens) (UniProt Q13627); test: Inhibition of human DYRK1A (1 to 502 residues) assessed as remaining enzyme activity at 50 uM after 30 mins by 33P-ATP filter-binding assay
MDA-MB-468 = test: Cytotoxicity against human MDA-MB-468 cells assessed as cell growth inhibition after 48 hrs by MTT assay; assay type: functional; conditions: MDA-MB-468, 48 h
[18] = Cytotoxicity against human FR2 cells assessed as cell growth inhibition after 48 hrs by MTT assay; assay type: cell-based
[19] = Cell cycle arrest in human HL60 cells assessed as accumulation at G1 phase at 10 uM (reference value: 59 %); assay type: functional, cell-based; conditions: HL-60
[20] = biological target: Eukaryotic translation initiation factor 2-alpha kinase 3 (Homo sapiens) (UniProt Q9NZJ5); test: Inhibition of human EIF2AK3 (536 to 1116 residues) assessed as remaining enzyme activity at 50 uM after 30 mins by 33P-ATP filter-binding assay
[21] = biological target: Homeodomain-interacting protein kinase 2 (Homo sapiens) (UniProt Q9H2X6); test: Inhibition of human HIPK2 (165 to 564 residues) assessed as remaining enzyme activity at 50 uM after 30 mins by 33P-ATP filter-binding assay
[22] = biological target: T1, CDK2/Cyclin A2 (Homo sapiens) (UniProt P24941+P20248); test: Inhibition of human Cdk2/cyclin A assessed as remaining enzyme activity at 50 uM after 30 mins by 33P-ATP filter-binding assay; assay type: protein-complex assay
[23] = Cell cycle arrest in human HL60 cells assessed as accumulation at S phase at 10 uM (reference value: 36 %); assay type: functional, cell-based; conditions: HL-60
[24] = Cell cycle arrest in human HL60 cells assessed as accumulation at S phase at 1 uM (reference value: 36 %); assay type: functional, cell-based; conditions: HL-60
LNCaP = test: Cytotoxicity against human LNCAP cells assessed as cell growth inhibition after 48 hrs by MTT assay; assay type: functional
[25] = biological target: Calcium/calmodulin-dependent protein kinase kinase 2 (Homo sapiens) (UniProt Q96RR4); test: Inhibition of human CAMKKbeta (1 to 541 residues) assessed as remaining enzyme activity at 50 uM after 30 mins by 33P-ATP filter-binding assay
[26] = biological target: NUAK family SNF1-like kinase 1 (Homo sapiens) (UniProt O60285); test: Inhibition of human NUAK1 (2 to 660 residues) assessed as remaining enzyme activity at 50 uM after 30 mins by 33P-ATP filter-binding assay
[27] = biological target: Protein-tyrosine kinase 6 (Homo sapiens) (UniProt Q13882); test: Inhibition of human BRK (1 to 451 residues) assessed as remaining enzyme activity at 50 uM after 30 mins by 33P-ATP filter-binding assay
[28] = Stability in pH 4 buffer at 120 ug/ml after 8 hrs by RP-HPLC analysis; assay type: physicochemical; conditions: pH 4, 8 h
[29] = biological target: T1, CDK2/Cyclin A2 (Homo sapiens); test: Inhibition of human Cdk2/cyclin A at 0.5 uM using Histone H1 substrate after 30 mins by 33P-ATP filter-binding assay; assay type: protein-complex assay
[30] = biological target: Aurora kinase A (Homo sapiens) (UniProt O14965); test: Inhibition of human Aurora A (2 to 403 residues) assessed as remaining enzyme activity at 50 uM after 30 mins by 33P-ATP filter-binding assay

Sequence of Homeodomain-interacting protein kinase 2 (Homo sapiens) (Q9H2X6 whole entry, looked up, the tested form may be a part): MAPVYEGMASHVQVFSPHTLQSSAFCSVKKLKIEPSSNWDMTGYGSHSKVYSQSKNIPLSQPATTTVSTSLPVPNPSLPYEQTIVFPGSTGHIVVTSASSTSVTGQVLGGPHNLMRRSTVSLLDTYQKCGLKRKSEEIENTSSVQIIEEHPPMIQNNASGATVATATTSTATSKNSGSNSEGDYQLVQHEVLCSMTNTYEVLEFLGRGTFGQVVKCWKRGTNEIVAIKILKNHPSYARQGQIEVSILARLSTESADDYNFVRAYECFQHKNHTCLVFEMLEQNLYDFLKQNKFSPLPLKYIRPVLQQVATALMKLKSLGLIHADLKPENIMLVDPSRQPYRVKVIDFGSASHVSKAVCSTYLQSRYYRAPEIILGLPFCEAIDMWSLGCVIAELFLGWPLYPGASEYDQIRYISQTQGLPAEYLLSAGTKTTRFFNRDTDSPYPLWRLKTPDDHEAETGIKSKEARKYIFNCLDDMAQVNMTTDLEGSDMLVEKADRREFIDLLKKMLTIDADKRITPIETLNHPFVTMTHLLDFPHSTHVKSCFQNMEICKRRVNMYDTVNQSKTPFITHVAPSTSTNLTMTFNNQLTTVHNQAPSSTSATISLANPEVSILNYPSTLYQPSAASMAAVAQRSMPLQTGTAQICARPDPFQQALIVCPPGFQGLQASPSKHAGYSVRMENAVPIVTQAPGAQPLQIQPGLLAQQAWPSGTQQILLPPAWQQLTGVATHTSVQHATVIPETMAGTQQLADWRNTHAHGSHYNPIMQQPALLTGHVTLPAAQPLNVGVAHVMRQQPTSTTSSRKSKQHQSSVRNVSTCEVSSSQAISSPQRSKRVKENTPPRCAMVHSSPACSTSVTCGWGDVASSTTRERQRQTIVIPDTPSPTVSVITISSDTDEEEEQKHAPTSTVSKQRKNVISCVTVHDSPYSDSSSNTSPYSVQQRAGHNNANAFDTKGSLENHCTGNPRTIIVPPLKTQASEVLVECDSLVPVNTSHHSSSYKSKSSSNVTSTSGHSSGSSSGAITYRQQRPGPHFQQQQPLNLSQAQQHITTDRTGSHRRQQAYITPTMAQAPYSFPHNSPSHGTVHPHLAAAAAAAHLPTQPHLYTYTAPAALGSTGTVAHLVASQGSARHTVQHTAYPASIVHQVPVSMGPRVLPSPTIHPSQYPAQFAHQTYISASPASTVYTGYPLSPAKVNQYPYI
Sequence of NUAK family SNF1-like kinase 1 (Homo sapiens) (O60285 whole entry, the tested form may be a part): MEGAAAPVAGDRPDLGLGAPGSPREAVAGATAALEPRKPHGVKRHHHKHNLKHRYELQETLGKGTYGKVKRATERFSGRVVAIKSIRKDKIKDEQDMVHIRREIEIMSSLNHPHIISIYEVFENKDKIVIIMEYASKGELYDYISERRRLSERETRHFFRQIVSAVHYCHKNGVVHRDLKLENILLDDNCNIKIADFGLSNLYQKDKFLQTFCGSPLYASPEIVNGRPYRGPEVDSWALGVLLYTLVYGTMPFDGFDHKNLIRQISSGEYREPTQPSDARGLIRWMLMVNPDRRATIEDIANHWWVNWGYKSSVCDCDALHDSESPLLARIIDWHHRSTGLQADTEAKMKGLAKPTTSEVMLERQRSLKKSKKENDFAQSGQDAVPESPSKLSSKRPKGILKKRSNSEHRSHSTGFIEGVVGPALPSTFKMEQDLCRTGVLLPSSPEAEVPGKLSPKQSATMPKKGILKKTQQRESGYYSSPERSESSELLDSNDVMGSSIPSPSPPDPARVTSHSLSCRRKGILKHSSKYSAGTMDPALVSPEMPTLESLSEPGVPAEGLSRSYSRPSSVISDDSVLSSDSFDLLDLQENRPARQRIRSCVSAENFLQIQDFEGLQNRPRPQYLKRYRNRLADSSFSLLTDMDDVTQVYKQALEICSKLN
Sequence of Mitogen-activated protein kinase kinase kinase 7 (Homo sapiens) (O43318 whole entry, the tested form may be a part): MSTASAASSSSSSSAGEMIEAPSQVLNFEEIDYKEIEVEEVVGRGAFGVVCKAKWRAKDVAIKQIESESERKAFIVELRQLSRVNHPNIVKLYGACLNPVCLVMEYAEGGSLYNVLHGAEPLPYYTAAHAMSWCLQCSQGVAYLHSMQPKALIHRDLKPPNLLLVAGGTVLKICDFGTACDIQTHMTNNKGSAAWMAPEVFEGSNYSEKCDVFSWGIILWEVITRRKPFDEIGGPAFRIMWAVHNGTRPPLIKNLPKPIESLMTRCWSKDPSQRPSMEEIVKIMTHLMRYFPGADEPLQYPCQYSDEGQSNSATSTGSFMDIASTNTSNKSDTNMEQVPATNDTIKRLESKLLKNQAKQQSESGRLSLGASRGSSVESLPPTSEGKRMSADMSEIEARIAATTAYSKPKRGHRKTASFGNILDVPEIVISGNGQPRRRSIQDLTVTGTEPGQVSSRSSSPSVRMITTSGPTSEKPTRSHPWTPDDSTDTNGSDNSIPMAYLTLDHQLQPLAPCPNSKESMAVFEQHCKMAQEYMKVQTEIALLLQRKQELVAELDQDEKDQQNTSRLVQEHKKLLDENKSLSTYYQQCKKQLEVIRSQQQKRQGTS
Sequence of Protein-tyrosine kinase 6 (Homo sapiens) (Q13882 whole entry, looked up, the tested form may be a part): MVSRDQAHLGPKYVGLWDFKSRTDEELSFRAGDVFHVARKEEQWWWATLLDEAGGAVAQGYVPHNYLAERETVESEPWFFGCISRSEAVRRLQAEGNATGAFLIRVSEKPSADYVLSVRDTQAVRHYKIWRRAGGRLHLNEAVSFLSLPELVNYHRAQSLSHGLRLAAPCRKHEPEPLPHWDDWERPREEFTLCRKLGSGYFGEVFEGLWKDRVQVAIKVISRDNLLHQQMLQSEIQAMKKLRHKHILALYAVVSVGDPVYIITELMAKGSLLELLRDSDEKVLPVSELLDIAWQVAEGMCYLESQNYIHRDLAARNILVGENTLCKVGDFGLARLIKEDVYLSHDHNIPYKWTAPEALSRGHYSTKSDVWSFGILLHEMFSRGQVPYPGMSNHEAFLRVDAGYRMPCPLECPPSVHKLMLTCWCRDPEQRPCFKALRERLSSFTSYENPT
Sequence of MAP kinase-activated protein kinase 2 (Homo sapiens) (P49137 whole entry, looked up, the tested form may be a part): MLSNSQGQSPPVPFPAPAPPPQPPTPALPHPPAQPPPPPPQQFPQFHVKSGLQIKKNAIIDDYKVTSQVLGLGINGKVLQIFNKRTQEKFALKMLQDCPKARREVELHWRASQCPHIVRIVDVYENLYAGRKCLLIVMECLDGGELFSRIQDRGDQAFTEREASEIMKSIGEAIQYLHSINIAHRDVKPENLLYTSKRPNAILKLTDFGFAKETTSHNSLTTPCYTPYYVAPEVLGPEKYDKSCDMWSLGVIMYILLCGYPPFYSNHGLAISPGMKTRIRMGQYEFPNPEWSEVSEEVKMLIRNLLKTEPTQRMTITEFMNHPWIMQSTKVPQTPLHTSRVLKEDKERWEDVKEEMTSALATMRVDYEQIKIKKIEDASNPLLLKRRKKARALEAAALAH
Sequence of Serine/threonine-protein kinase PLK1 (Homo sapiens) (P53350 whole entry, the tested form may be a part): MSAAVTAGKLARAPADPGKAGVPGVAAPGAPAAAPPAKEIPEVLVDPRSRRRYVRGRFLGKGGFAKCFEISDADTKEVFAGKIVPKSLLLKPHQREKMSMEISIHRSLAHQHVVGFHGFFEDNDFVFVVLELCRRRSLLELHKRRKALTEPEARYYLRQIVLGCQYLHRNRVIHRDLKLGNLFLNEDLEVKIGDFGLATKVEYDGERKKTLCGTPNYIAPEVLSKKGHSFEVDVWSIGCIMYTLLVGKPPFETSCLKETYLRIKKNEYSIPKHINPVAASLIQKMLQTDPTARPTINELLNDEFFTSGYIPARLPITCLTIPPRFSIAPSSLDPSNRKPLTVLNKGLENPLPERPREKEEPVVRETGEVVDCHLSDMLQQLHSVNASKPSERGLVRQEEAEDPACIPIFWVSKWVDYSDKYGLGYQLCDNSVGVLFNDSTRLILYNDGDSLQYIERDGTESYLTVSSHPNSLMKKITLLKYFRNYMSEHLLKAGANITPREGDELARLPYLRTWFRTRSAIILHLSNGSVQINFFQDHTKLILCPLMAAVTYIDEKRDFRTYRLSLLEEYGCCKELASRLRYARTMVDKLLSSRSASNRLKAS
Sequence of Dual specificity mitogen-activated protein kinase kinase 1 (Homo sapiens) (Q02750 whole entry, the tested form may be a part): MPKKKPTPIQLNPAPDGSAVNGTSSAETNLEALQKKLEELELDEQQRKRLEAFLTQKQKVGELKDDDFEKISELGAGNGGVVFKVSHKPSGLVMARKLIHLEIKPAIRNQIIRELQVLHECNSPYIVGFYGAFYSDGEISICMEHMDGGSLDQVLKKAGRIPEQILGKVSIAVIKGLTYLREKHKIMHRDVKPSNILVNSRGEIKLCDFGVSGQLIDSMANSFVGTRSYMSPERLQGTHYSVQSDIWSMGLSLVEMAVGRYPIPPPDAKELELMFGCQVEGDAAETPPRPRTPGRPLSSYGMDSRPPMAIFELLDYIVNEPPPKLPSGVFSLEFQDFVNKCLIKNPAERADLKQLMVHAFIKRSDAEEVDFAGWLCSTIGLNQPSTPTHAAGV
Sequence of Tyrosine-protein kinase Lck (Homo sapiens) (P06239 2-509 limits assumed): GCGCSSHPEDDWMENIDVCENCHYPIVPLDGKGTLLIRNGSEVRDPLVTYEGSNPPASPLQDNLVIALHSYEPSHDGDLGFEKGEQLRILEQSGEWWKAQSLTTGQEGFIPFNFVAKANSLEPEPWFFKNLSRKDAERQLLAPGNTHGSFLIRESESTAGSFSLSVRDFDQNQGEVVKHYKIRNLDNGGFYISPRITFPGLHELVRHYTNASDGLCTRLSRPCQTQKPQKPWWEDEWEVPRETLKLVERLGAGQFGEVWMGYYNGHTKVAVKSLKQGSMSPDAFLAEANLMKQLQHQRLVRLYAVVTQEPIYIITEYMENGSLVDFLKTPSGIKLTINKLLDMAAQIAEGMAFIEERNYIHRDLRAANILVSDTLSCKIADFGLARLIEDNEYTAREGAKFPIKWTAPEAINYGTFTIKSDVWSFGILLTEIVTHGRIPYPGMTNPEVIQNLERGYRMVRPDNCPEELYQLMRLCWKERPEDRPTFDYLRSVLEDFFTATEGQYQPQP

Activity [2]: 27% | Activity [3]: 59% | Activity [6]: 45% | Activity [7]: 96% | logP [8]: 1.01 | Activity [9]: 52% | Activity [10]: 96% | inhibition [11]: 75% | Activity [12]: 70% | Stability [14]: Stable | Activity (MAP4K2): 17% | Activity [15]: 53% | Activity [16]: 39% | Activity [17]: 27% | Activity [20]: 82% | Activity [21]: 76% | Activity [22]: 16% | Activity [25]: 18% | Activity [26]: 52% | Activity [27]: 93% | Stability [28]: Stable | inhibition [29]: 10% | Activity [30]: 91%
SMILES: Cc1cc(=O)c2c(O)cc(O)c([C@H]3CCN(C)C[C@H]3O)c2o1 [ROHITUKINE]
GI50 [1]: 26 µM | Activity (HL-60): 1% | GI50 [4]: 20 µM | GI50 [5]: 30 µM | GI50 [13]: 22 µM | GI50 (MDA-MB-468): 17 µM | GI50 at 48 h [18]: > 50 µM | Activity [19]: 48% | Activity [23]: 48% | Activity [24]: 50% | GI50 (LNCaP): 30 µM
